Experimental data from patent US20150105252A1, “SUBSTITUTED PYRAZOLES AS HERBICIDES” (E I DU PONT DE NEMOURS AND COMPANY, priority 2013, published 2015).

What was measured:
[1] = system: foxtail, giant; test: Test A preemergence; type: in vivo, Setaria faberii
Summary of the method: (§1)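 Both timings tested concurrently in loam/sand soil: preemergence by directed soil spray, postemergence on plants of 2–10 cm at the one- to two-leaf stage. Greenhouse holding period was approximately 10 days before visual injury assessment (0–100, 0 = no effect).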

[2] = system: morningglory; test: Test A preemergence; type: in vivo, Ipomoea spp.; conditions: 0 to 100 scale
Summary of the method: as §1

[3] = system: velvetleaf; test: Test A preemergence; type: in vivo, Abutilon theophrasti; conditions: 0 to 100 scale
Summary of the method: as §1

[4] = system: corn; test: Test A preemergence; type: in vivo, Zea mays; conditions: 0 to 100 scale
Summary of the method: as §1

[5] = system: crabgrass, large; test: Test A postemergence; type: in vivo, Digitaria sanguinalis
Summary of the method: as §1

[6] = system: pigweed; test: Test A postemergence; type: in vivo, Amaranthus retroflexus
Summary of the method: as §1

[7] = system: wheat; test: Test A postemergence; type: in vivo, Triticum aestivum
Summary of the method: as §1

[8] = system: sedge, umbrella; test: Test B flood; type: in vivo, Cyperus difformis; conditions: 250 g ai/ha, visual rating on 0 to 100 scale (0 no effect, 100 complete control), 13 to 15 days
Summary of the method: (§2)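 Plants were grown to the 2-leaf stage and pots flooded to 3 cm above soil. Compounds were applied directly into the paddy water, with depth kept for the test. After 13–15 days in greenhouse, response was rated visually against controls on a 0 (no effect) to 100 (complete control) scale.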

[9] = system: ducksalad; test: Test B flood; type: in vivo, Heteranthera limosa; conditions: 250 g ai/ha, visual rating on 0 to 100 scale (0 no effect, 100 complete control), 13 to 15 days
Summary of the method: as §2

[10] = system: galium; test: Test C preemergence; type: in vivo, Galium aparine; conditions: for Plant response rating (scale of 0 to 100), Galium: Preemergence, 250 g ai/ha; for Galium plant response rating / Plant response rating, Galium: preemergence; for Plant response rating, Galium: scale 0 to 100, 0 = no effect, 100 = complete control
Description: (§3) Seeds of plant species selected from blackgrass (Alopecurus myosuroides), ryegrass, Italian (Italian ryegrass, Lolium multiflorum), wheat (winter wheat, Triticum aestivum), galium (catchweed bedstraw, Galium aparine), corn (Zea mays), crabgrass, large (large crabgrass, Digitaria sanguinalis), foxtail, giant (giant foxtail, Setaria faberii), johnsongrass (Sorghum halepense), lambsquarters (Chenopodium album), morningglory (Ipomoea coccinea), nutsedge, yellow (yellow nutsedge, Cyperus esculentus), pigweed (redroot pigweed, Amaranthus retroflexus), ragweed (common ragweed, Ambrosia elation), soybean (Glycine max), barnyardgrass (Echinochloa crus-galli), oilseed rape (Brassica napus), waterhemp (common waterhemp, Amaranthus rudis), oat, wild (wild oat, Avena fatua), kochia (Kochia scoparia), Surinam grass (Brachiaria decumbens), foxtail, green (green foxtail, Setaria viridis), goosegrass (Eleusine indica), bromegrass, downy (downy bromegrass, Bromus tectorum), nightshade (eastern black nightshade, Solanum ptycanthum), cocklebur (common cocklebur, Xanthium strumarium), cupgrass, woolly (woolly cupgrass, Eriochloa villosa), bermudagrass (Cynodon dactylon), sunflower, (common oilseed sunflower, Helianthus annuus), Russian thistle (Salsola kali), and velvetleaf (Abutilon theophrasti) were planted into a blend of loam soil and sand and treated preemergence with test chemicals formulated in a non-phytotoxic solvent mixture which included a surfactant.
(§4) At the same time, plants selected from these crop and weed species and also chickweed (common chickweed, Stellaria media), canarygrass (littleseed canarygrass, Phalaris minor), and deadnettle (henbit deadnettle, Lamium amplexicaule), were planted in pots containing Redi-Earth® planting medium (Scotts Company, 14111 Scottslawn Road, Marysville, Ohio 43041) comprising spaghnum peat moss, vermiculite, wetting agent and starter nutrients and treated with postemergence applications of test chemicals formulated in the same manner. Plants ranged in height from 2 to 18 cm (1- to 4-leaf stage) for postemergence treatments. Treated plants and controls were maintained in a greenhouse for 13 to 15 days, after which time all species were compared to controls and visually evaluated. Plant response ratings, summarized in Table C, are based on a scale of 0 to 100 where 0 is no effect and 100 is complete control. A dash (-) response means no test result.

[11] = system: corn; test: Test C preemergence; type: in vivo, Zea mays; conditions: for Plant response rating (scale of 0 to 100), Corn: Preemergence, 250 g ai/ha; for Corn plant response rating / Plant response rating, Corn: preemergence; for Plant response rating, Corn: scale 0 to 100, 0 = no effect, 100 = complete control
Description: as §3, §4

[12] = system: foxtail, giant; test: Test C preemergence; type: in vivo, Setaria faberii; conditions: for Plant response rating (scale of 0 to 100), Foxtail, Giant: Preemergence, 250 g ai/ha; for Foxtail, Giant plant response rating / Plant response rating, Foxtail, Giant: preemergence; for Plant response rating, Foxtail, Giant: scale 0 to 100, 0 = no effect, 100 = complete control
Description: as §3, §4

[13] = system: nutsedge, yellow; test: Test C preemergence; type: in vivo, Cyperus esculentus; conditions: for Plant response rating (scale of 0 to 100), Nutsedge, Yellow: Preemergence, 250 g ai/ha; for Nutsedge, Yellow plant response rating / Plant response rating, Nutsedge, Yellow: preemergence; for Plant response rating, Nutsedge, Yellow: scale 0 to 100, 0 = no effect, 100 = complete control
Description: as §3, §4

[14] = system: wheat; test: Test C preemergence; type: in vivo, Triticum aestivum; conditions: for Plant response rating (scale of 0 to 100), Wheat: Preemergence, 250 g ai/ha
Description: as §3, §4

[15] = system: oilseed rape; test: Test C preemergence; type: in vivo, Brassica napus; conditions: for Plant response rating (scale of 0 to 100), Oilseed Rape: Preemergence, 250 g ai/ha
Description: as §3, §4

[16] = preemergence, 125 g ai/ha, visual injury, 0 to 100 scale, approx. 10 days
[17] = Preemergence, 500 g ai/ha, 0 no effect, 100 complete control
[18] = preemergence, 125 g ai/ha, visual injury, approx. 10 days
[19] = Postemergence, 500 g ai/ha, visual rating after approx. 10 days, 0 to 100 scale (0 no effect, 100 complete control)
[20] = postemergence, 125 g ai/ha, about 10 days, visual rating on 0 to 100 scale (0 no effect, 100 complete control)
[21] = 31 g ai/ha, visual rating, scale 0 to 100 (0 no effect, 100 complete control), 13 to 15 days
[22] = 125 g ai/ha, scale 0 to 100, 0 is no effect, 100 is complete control
[23] = preemergence, 500 g ai/ha, visual injury after approx. 10 days, 0 to 100 scale (0 no effect, 100 complete control)
[24] = Postemergence, 500 g ai/ha, 0 to 100 scale (0 no effect, 100 complete control)
[25] = preemergence, 31 g ai/ha, visual rating, scale 0 to 100 (0 no effect, 100 complete control), 13 to 15 days
[26] = preemergence, 62 g ai/ha, scale 0 to 100 (0 no effect, 100 complete control), 13 to 15 days
[27] = preemergence, 125 g ai/ha, scale 0 to 100, 0 is no effect, 100 is complete control
[28] = 62 g ai/ha, scale 0 to 100 (0 no effect, 100 complete control), 13 to 15 days
[29] = preemergence, 125 g ai/ha, 13 to 15 days, scale 0 to 100, 0 = no effect, 100 = complete control

CCc1cc(C(=O)NCC(F)(F)F)nn1Cc1ccnc(C(F)(F)F)c1 [Compound 78, 5-ethyl-N-(2,2,2-trifluoroethyl)-1-[[(2-trifluoromethyl)-4-pyridinyl]methyl]-1H-pyrazole-3-carboxamide]
Foxtail, Giant plant response rating ([1]; Preemergence, 500 g ai/ha, 0 to 100 scale, 0 no effect, 100 complete control): 100
Foxtail, Giant plant response rating [1, 16]: 100
Morningglory plant response rating [2, 17]: 100
Morningglory plant response rating [2, 18]: 100
Velvetleaf plant response rating [3, 17]: 100
Velvetleaf plant response rating [3, 18]: 100
Corn plant response rating [4, 17]: 70
Corn plant response rating [4, 18]: 60
Crabgrass, Large plant response rating [5, 19]: 100
Crabgrass, Large plant response rating [5, 20]: 90
Pigweed plant response rating [6, 19]: 100
Pigweed plant response rating [6, 20]: 100
Wheat plant response rating [7, 19]: 80
Wheat plant response rating [7, 20]: 70
Plant response rating, Sedge, Umbrella [8]: 80
Plant response rating, Ducksalad [9]: 85
Plant response rating (scale of 0 to 100), Galium [10]: 100
Galium plant response rating [10, 21]: 85
Plant response rating, Galium ([10]; 62 g ai/ha, 13 to 15 days): 100
Galium plant response rating [10, 22]: 100
Plant response rating (scale of 0 to 100), Corn [11]: 98
Corn plant response rating [11, 21]: 60
Plant response rating, Corn ([11]; 62 g ai/ha, 13 to 15 days): 65
Corn plant response rating [11, 22]: 95
Plant response rating (scale of 0 to 100), Foxtail, Giant [12]: 100
Foxtail, Giant plant response rating [12, 21]: 90
Plant response rating, Foxtail, Giant ([12]; 62 g ai/ha, 13 to 15 days): 98
Foxtail, Giant plant response rating [12, 22]: 98
Plant response rating (scale of 0 to 100), Nutsedge, Yellow [13]: 98
Nutsedge, Yellow plant response rating [13, 21]: 70
Plant response rating, Nutsedge, Yellow ([13]; 62 g ai/ha, 13 to 15 days): 85
Nutsedge, Yellow plant response rating [13, 22]: 98

CCONC(=O)c1cc(CC)n(Cc2cc(C(F)(F)F)no2)n1 [Compound 125]
Foxtail, Giant plant response rating [1, 16]: 80
Foxtail, Giant plant response rating [1, 23]: 100
Pigweed plant response rating [6, 24]: 100
Pigweed plant response rating [6, 20]: 70
Wheat plant response rating [7, 24]: 60
Wheat plant response rating [7, 20]: 0
Plant response rating, Sedge, Umbrella [8]: 50
Plant response rating, Ducksalad [9]: 60
Plant response rating (scale of 0 to 100), Wheat [14]: 50
Wheat plant response rating [14, 25]: 0
Wheat plant response rating [14, 26]: 0
Wheat plant response rating [14, 27]: 5
Plant response rating (scale of 0 to 100), Galium [10]: 90
Galium plant response rating [10, 21]: 80
Galium plant response rating [10, 28]: 85
Galium plant response rating [10, 22]: 100
Plant response rating (scale of 0 to 100), Corn [11]: 45
Corn plant response rating [11, 21]: 0
Corn plant response rating [11, 28]: 5
Corn plant response rating [11, 22]: 10
Plant response rating (scale of 0 to 100), Foxtail, Giant [12]: 90
Foxtail, Giant plant response rating [12, 21]: 20
Foxtail, Giant plant response rating [12, 28]: 35
Foxtail, Giant plant response rating [12, 22]: 90
Plant response rating (scale of 0 to 100), Nutsedge, Yellow [13]: 55
Nutsedge, Yellow plant response rating [13, 21]: 0
Nutsedge, Yellow plant response rating [13, 28]: 5
Nutsedge, Yellow plant response rating [13, 22]: 15
Plant response rating (scale of 0 to 100), Oilseed Rape [15]: 95
Oilseed Rape plant response rating [15, 25]: 30
Oilseed Rape plant response rating [15, 26]: 60
Oilseed Rape plant response rating [15, 27]: 95

CCOc1cc(C(=O)NC2CC2)nn1Cc1ccnc(OC(F)F)c1 [Compound 133]
Foxtail, Giant plant response rating [1, 16]: 100
Foxtail, Giant plant response rating [1, 23]: 100
Pigweed plant response rating [6, 24]: 100
Pigweed plant response rating [6, 20]: 100
Wheat plant response rating [7, 24]: 90
Wheat plant response rating [7, 20]: 40
Plant response rating, Sedge, Umbrella [8]: 90
Plant response rating, Ducksalad [9]: 90
Plant response rating (scale of 0 to 100), Wheat [14]: 90
Wheat plant response rating [14, 25]: 0
Wheat plant response rating [14, 26]: 45
Plant response rating, Wheat [14, 29]: 90
Plant response rating (scale of 0 to 100), Galium [10]: 100
Galium plant response rating [10, 28]: 95
Plant response rating, Galium ([10]; 125 g ai/ha, 13 to 15 days): 98
Plant response rating (scale of 0 to 100), Corn [11]: 95
Corn plant response rating [11, 21]: 5
Corn plant response rating [11, 28]: 25
Plant response rating, Corn ([11]; 125 g ai/ha, 13 to 15 days): 45
Plant response rating (scale of 0 to 100), Foxtail, Giant [12]: 100
Foxtail, Giant plant response rating [12, 21]: 85
Foxtail, Giant plant response rating [12, 28]: 100
Plant response rating, Foxtail, Giant ([12]; 125 g ai/ha, 13 to 15 days): 100
Plant response rating (scale of 0 to 100), Nutsedge, Yellow [13]: 85
Nutsedge, Yellow plant response rating [13, 21]: 20
Nutsedge, Yellow plant response rating [13, 28]: 25
Plant response rating, Nutsedge, Yellow ([13]; 125 g ai/ha, 13 to 15 days): 70
Plant response rating (scale of 0 to 100), Oilseed Rape [15]: 100
Oilseed Rape plant response rating [15, 25]: 60
Oilseed Rape plant response rating [15, 26]: 100
Plant response rating, Oilseed Rape [15, 29]: 100
